Read-outs that look alike come from different tables or passages of the source.
Key:
Assay in all cases: Test B pre-/postemergence plant response
Format in all cases: in vivo
[1] = system: Italian ryegrass (Lolium multiflorum); conditions: for pest or weed control at 31 g/ha / pest or weed control at 62 g/ha: Lolium multiflorum, read-out: Plant response rating, Ryegrass, Italian; for pest or weed control at 31 g/ha: 31 g ai/ha; for pest or weed control at 62 g/ha: 62 g ai/ha, 100 complete control
From the text: (§1) Seeds of plant species selected from blackgrass (Alopecurus myosuroides), downy bromegrass (Bromus tectorum), green foxtail (Setaria viridis), Italian ryegrass (Lolium multiflorum), wheat (Triticum aestivum), wild oat (Avena fatua), catchweed bedstraw (Galium aparine), bermudagrass (Cynodon dactylon), surinam grass (Brachiaria decumbens), cocklebur (Xanthium strumarium), corn (Zea mays), large crabgrass (Digitaria sanguinalis), woolly cupgrass (Eriochloa villosa), giant foxtail (Setaria faberii), goosegrass (Eleusine indica), johnsongrass (Sorghum halepense), kochia (Kochia scoparia), lambsquarters (Chenopodium album), morningglory (Ipomoea coccinea), eastern black (E.B.) nightshade (Solanum ptycanthum), yellow nutsedge (Cyperus esculentus), pigweed (Amaranthus retroflexus), common ragweed (Ambrosia elation), Russian thistle (Salsola iberica), soybean (Glycine max), common (oilseed) sunflower (Helianthus annuus), and velvetleaf (Abutilon theophrasti) were planted and treated preemergence with test chemicals formulated in a non-phytotoxic solvent mixture which included a surfactant.
(§2) At the same time, plants selected from these crop and weed species and also winter barley (Hordeum vulgare), canarygrass (Phalaris minor), chickweed (Stellaria media) and windgrass (Apera spica-venti) were treated with postemergence applications of some of the test chemicals formulated in the same manner. Plants ranged in height from 2 to 18 cm (1- to 4-leaf stage) for postemergence treatments.
(§3) Plant species in the flooded paddy test consisted of rice (Oryza sativa), umbrella sedge (Cyperus difformis), ducksalad (Heteranthera limosa) and barnyardgrass (Echinochloa crus-galli) grown to the 2-leaf stage for testing. At time of treatment, test pots were flooded to 3 cm above the soil surface, treated by application of test compounds directly to the paddy water, and then maintained at that water depth for the duration of the test. Treated plants and controls were maintained in a greenhouse for 13 to 15 days, after which time all species were compared to controls and visually evaluated. Plant response ratings, summarized in Table B, are based on a scale of 0 to 100 where 0 is no effect and 100 is complete control. A dash (-) response means no test result.

[2] = system: bermudagrass (Cynodon dactylon); conditions: for pest or weed control at 31 g/ha: 31 g ai/ha; for pest or weed control at 62 g/ha: 62 g ai/ha, 100 complete control
From the text: as §1, §2, §3

[3] = system: blackgrass (Alopecurus myosuroides); conditions: for pest or weed control at 31 g/ha: 31 g ai/ha; for pest or weed control at 62 g/ha: 62 g ai/ha, 100 complete control
From the text: as §1, §2, §3

[4] = system: common ragweed (Ambrosia elation); conditions: for pest or weed control at 31 g/ha / pest or weed control at 62 g/ha: Ambrosia, read-out: Plant response rating, Ragweed; for pest or weed control at 31 g/ha: 31 g ai/ha; for pest or weed control at 62 g/ha: 62 g ai/ha, 100 complete control
From the text: as §1, §2, §3

corn (Zea mays) = conditions: for Corn plant response rating (crop injury, 0 = no effect, 100 = complete kill) at 31 g/ha: 31 g ai/ha; for Corn plant response rating (crop injury, 0 = no effect, 100 = complete kill) at 62 g/ha: 62 g ai/ha, 100 complete control
From the text: as §1, §2, §3

[5] = system: eastern black (E.B.) nightshade (Solanum ptycanthum); conditions: Preemergence
From the text: as §1, §2, §3

[6] = system: giant foxtail (Setaria faberii); conditions: for pest or weed control at 31 g/ha: 31 g ai/ha; for pest or weed control at 62 g/ha: 62 g ai/ha, 100 complete control
From the text: as §1, §2, §3

[7] = system: johnsongrass (Sorghum halepense); conditions: for pest or weed control at 31 g/ha / pest or weed control at 62 g/ha: Sorghum halepense, read-out: Plant response rating, Johnsongrass; for pest or weed control at 31 g/ha: 31 g ai/ha; for pest or weed control at 62 g/ha: 62 g ai/ha, 100 complete control
From the text: as §1, §2, §3

[8] = system: lambsquarters (Chenopodium album); conditions: for pest or weed control at 31 g/ha / pest or weed control at 62 g/ha: Chenopodium album, read-out: Plant response rating, Lambsquarters; for pest or weed control at 31 g/ha: 31 g ai/ha; for pest or weed control at 62 g/ha: 62 g ai/ha, 100 complete control
From the text: as §1, §2, §3

[9] = system: morningglory (Ipomoea coccinea); conditions: for pest or weed control at 31 g/ha / pest or weed control at 62 g/ha: Ipomoea, read-out: Plant response rating, Morningglory; for pest or weed control at 31 g/ha: 31 g ai/ha; for pest or weed control at 62 g/ha: 62 g ai/ha, 100 complete control
From the text: as §1, §2, §3

[10] = system: surinam grass (Brachiaria decumbens); conditions: for pest or weed control at 31 g/ha / pest or weed control at 62 g/ha: Urochloa decumbens, read-out: Plant response rating, Surinam Grass; for pest or weed control at 31 g/ha: 31 g ai/ha; for pest or weed control at 62 g/ha: 62 g ai/ha, 100 complete control
From the text: as §1, §2, §3

wild oat (Avena fatua) = conditions: for pest or weed control at 31 g/ha / pest or weed control at 62 g/ha: Avena fatua, read-out: Plant response rating, Oat, Wild; for pest or weed control at 31 g/ha: 31 g ai/ha; for pest or weed control at 62 g/ha: 62 g ai/ha, 100 complete control
From the text: as §1, §2, §3

[11] = system: yellow nutsedge (Cyperus esculentus); conditions: for pest or weed control at 31 g/ha / pest or weed control at 62 g/ha: Cyperus, read-out: Plant response rating, Nutsedge, Yellow; for pest or weed control at 31 g/ha: 31 g ai/ha; for pest or weed control at 62 g/ha: 62 g ai/ha, 100 complete control
From the text: as §1, §2, §3

[12] = 8 g ai/ha, postemergence, 0-100 scale
[13] = 16 g ai/ha, postemergence, 0-100 scale
[14] = post-emergence, Postemergence, scale 0 to 100
[15] = post-emergence, Postemergence, scale 0 to 100, 0 no effect
[16] = pre-emergence, Preemergence, scale 0 to 100 (0 no effect, 100 complete control)
[17] = pre-emergence, Preemergence, 0 to 100 scale, 0 no effect
[18] = Preemergence, 8 g ai/ha, scale 0 to 100 (0 no effect, 100 complete control)
[19] = Preemergence, 16 g ai/ha, scale 0 to 100

Cc1nn(C)c(=O)c(-c2nc(-c3ccc(Cl)cc3)sc2C)c1O [Compound 79, 4-[2-(4-chlorophenyl)-5-methyl-4-thiazolyl]-5-hydroxy-2,6-dimethyl-3(2H)-pyridazinone]
98%: pest or weed control at 62 g/ha ([3]; Alopecurus myosuroides, post-emergence, Postemergence, scale 0 to 100, 0 no effect, read-out: Plant response rating, Blackgrass) | pest or weed control at 31 g/ha ([3]; Alopecurus myosuroides, pre-emergence, Preemergence, scale 0 to 100 (0 no effect, 100 complete control), read-out: Plant response rating, Blackgrass) | pest or weed control at 62 g/ha (wild oat (Avena fatua); [15])
70%: pest or weed control at 31 g/ha (wild oat (Avena fatua); [16])
0%: pest or weed control at 31 g/ha [4, 14] | pest or weed control at 62 g/ha [4, 15] | pest or weed control at 31 g/ha [4, 16] | pest or weed control at 62 g/ha [4, 17] | Corn plant response rating (crop injury, 0 = no effect, 100 = complete kill) at 16 g/ha (corn (Zea mays); Zea mays, post-emergence, Postemergence, 16 g ai/ha, scale 0 to 100) | pest or weed control at 62 g/ha ([5]; Solanum, pre-emergence, 62 g ai/ha, 0 to 100 scale, 0 no effect, 100 complete control, read-out: Plant response rating, Nightshade, E. B.) | pest or weed control at 31 g/ha [8, 14] | pest or weed control at 62 g/ha [8, 15] | pest or weed control at 31 g/ha [9, 14] | pest or weed control at 62 g/ha [9, 15] | pest or weed control at 31 g/ha [9, 16] | pest or weed control at 62 g/ha [9, 17] | pest or weed control at 31 g/ha [11, 14] | pest or weed control at 62 g/ha [11, 15] | pest or weed control at 31 g/ha [11, 16] | pest or weed control at 62 g/ha [11, 17]
100%: pest or weed control at 31 g/ha [1, 16] | pest or weed control at 62 g/ha [1, 17] | pest or weed control at 31 g/ha ([2]; Cynodon dactylon, post-emergence, Postemergence, scale 0 to 100, read-out: Plant response rating, Bermudagrass) | pest or weed control at 62 g/ha ([2]; Cynodon dactylon, post-emergence, Postemergence, scale 0 to 100, 0 no effect, read-out: Plant response rating, Bermudagrass) | pest or weed control at 31 g/ha ([2]; Cynodon dactylon, pre-emergence, Preemergence, scale 0 to 100 (0 no effect, 100 complete control), read-out: Plant response rating, Bermudagrass) | pest or weed control at 62 g/ha ([2]; Cynodon dactylon, pre-emergence, Preemergence, 0 to 100 scale, 0 no effect, read-out: Plant response rating, Bermudagrass) | pest or weed control at 62 g/ha ([3]; Alopecurus myosuroides, pre-emergence, Preemergence, 0 to 100 scale, 0 no effect, read-out: Plant response rating, Blackgrass) | Corn plant response rating (crop injury, 0 = no effect, 100 = complete kill) at 62 g/ha (corn (Zea mays); Zea mays, pre-emergence, Preemergence, 0 to 100 scale, 0 no effect) | pest or weed control at 31 g/ha ([6]; Setaria faberi, pre-emergence, Preemergence, scale 0 to 100 (0 no effect, 100 complete control), read-out: Plant response rating, Foxtail, Giant) | pest or weed control at 62 g/ha ([6]; Setaria faberi, pre-emergence, Preemergence, 0 to 100 scale, 0 no effect, read-out: Plant response rating, Foxtail, Giant) | pest or weed control at 31 g/ha [7, 14] | pest or weed control at 62 g/ha [7, 15] | pest or weed control at 31 g/ha [7, 16] | pest or weed control at 62 g/ha [7, 17] | pest or weed control at 62 g/ha [8, 17] | pest or weed control at 31 g/ha [10, 16] | pest or weed control at 62 g/ha [10, 17]
50: Blackgrass plant response rating [3, 12]
75%: pest or weed control at 31 g/ha [10, 14]
60%: pest or weed control at 31 g/ha (wild oat (Avena fatua); [14])
20%: Corn plant response rating (crop injury, 0 = no effect, 100 = complete kill) at 31 g/ha (corn (Zea mays); Zea mays, post-emergence, Postemergence, scale 0 to 100) | pest or weed control at 31 g/ha [8, 16]
85%: pest or weed control at 31 g/ha ([6]; Setaria faberi, post-emergence, Postemergence, scale 0 to 100, read-out: Plant response rating, Foxtail, Giant) | pest or weed control at 62 g/ha [10, 15]
45: Oat, Wild plant response rating (wild oat (Avena fatua); [13])
90: Ryegrass, Italian plant response rating [1, 19] | Bermudagrass plant response rating [2, 18] | Johnsongrass plant response rating [7, 13]
65: Johnsongrass plant response rating [7, 18] | Surinam Grass plant response rating [10, 12]
100: Bermudagrass plant response rating ([2]; Preemergence, 16 g ai/ha, scale 0 to 100 (0 no effect, 100 complete control)) | Foxtail, Giant plant response rating [6, 19]
75: Foxtail, Giant plant response rating [6, 12] | Surinam Grass plant response rating [10, 18]
80%: pest or weed control at 31 g/ha [1, 14] | pest or weed control at 16 g/ha ([2]; Cynodon dactylon, post-emergence, Postemergence, 16 g ai/ha, scale 0 to 100, read-out: Plant response rating, Bermudagrass) | pest or weed control at 16 g/ha ([6]; Setaria faberi, post-emergence, Postemergence, 16 g ai/ha, scale 0 to 100, read-out: Plant response rating, Foxtail, Giant)
70: Ryegrass, Italian plant response rating [1, 13] | Bermudagrass plant response rating [2, 12] | Surinam Grass plant response rating [10, 13]
95%: pest or weed control at 62 g/ha (wild oat (Avena fatua); [17])
55: Ryegrass, Italian plant response rating [1, 12] | Foxtail, Giant plant response rating [6, 18]
85: Blackgrass plant response rating [3, 18] | Blackgrass plant response rating [3, 19] | Johnsongrass plant response rating [7, 12] | Johnsongrass plant response rating [7, 19] | Surinam Grass plant response rating [10, 19]
0: Ryegrass, Italian plant response rating [1, 18] | Ragweed plant response rating [4, 12] | Ragweed plant response rating [4, 13] | Ragweed plant response rating [4, 18] | Ragweed plant response rating [4, 19] | Corn plant response rating (corn (Zea mays); [12]) | Corn plant response rating (corn (Zea mays); [18]) | Corn plant response rating (corn (Zea mays); [19]) | Nightshade, E. B. plant response rating ([5]; 8 g ai/ha, scale 0 to 100 (0 no effect, 100 complete control)) | Nightshade, E. B. plant response rating ([5]; 16 g ai/ha, scale 0 to 100) | Lambsquarters plant response rating [8, 12] | Lambsquarters plant response rating [8, 13] | Lambsquarters plant response rating [8, 18] | Lambsquarters plant response rating [8, 19] | Morningglory plant response rating [9, 12] | Morningglory plant response rating [9, 13] | Morningglory plant response rating [9, 18] | Morningglory plant response rating [9, 19] | Oat, Wild plant response rating (wild oat (Avena fatua); [18]) | Oat, Wild plant response rating (wild oat (Avena fatua); [19]) | Nutsedge, Yellow plant response rating [11, 12] | Nutsedge, Yellow plant response rating [11, 13] | Nutsedge, Yellow plant response rating [11, 18] | Nutsedge, Yellow plant response rating [11, 19]
50%: pest or weed control at 16 g/ha ([3]; Alopecurus myosuroides, post-emergence, Postemergence, 16 g ai/ha, scale 0 to 100, read-out: Plant response rating, Blackgrass) | Corn plant response rating (crop injury, 0 = no effect, 100 = complete kill) at 31 g/ha (corn (Zea mays); Zea mays, pre-emergence, Preemergence, scale 0 to 100 (0 no effect, 100 complete control))
35%: Corn plant response rating (crop injury, 0 = no effect, 100 = complete kill) at 62 g/ha (corn (Zea mays); Zea mays, post-emergence, Postemergence, scale 0 to 100, 0 no effect)
30: Oat, Wild plant response rating (wild oat (Avena fatua); [12])
90%: pest or weed control at 62 g/ha [1, 15] | pest or weed control at 31 g/ha ([3]; Alopecurus myosuroides, post-emergence, Postemergence, scale 0 to 100, read-out: Plant response rating, Blackgrass) | pest or weed control at 62 g/ha ([6]; Setaria faberi, post-emergence, Postemergence, scale 0 to 100, 0 no effect, read-out: Plant response rating, Foxtail, Giant)

— patent US20100267561A1, “HERBICIDAL PYRIDAZINONE DERIVATIVES” (priority 2007, published 2010)
